The record followed here is patent US20260274857A1, “CRYSTAL OF DIHYDROPYRIDINONE DERIVATIVE OR SOLVATE THEREOF” (Shionogi & Co., Ltd., priority 2022, published 2026).

Series [1] can be described thus: Solid stability test: storage stability (amount of analogous substance by HPLC, appearance). The format is physicochemical. As to the method:
For the solid stability of the crystal of the compound represented by Formula (I) obtained in Example 1 and the crystal of the compound represented by Formula (II) obtained in Example 16, the chemical stability under temperature, temperature and humidity conditions, and light irradiation was evaluated. The proportion (%) of the analogous substance produced by an HPLC method and the change in appearance were evaluated.
About 10 mg of the crystal was accurately weighed in a 2 mL glass container with a polyethylene stopper. After the glass container was closed, the glass container was stored at 40° C. or 60° C. for 2 weeks, 1 month, 2 months, 3 months, or 6 months. A sample stored at 40° C. is referred to as a 40° C. hermetically sealed product, and a sample stored at 60° C. is referred to as a 60° C. hermetically sealed product. In a state where the glass container was opened, the glass container was stored at a relative humidity of 75±5% at 40° C. or a relative humidity of 89±5% for 2 weeks, 1 month, 2 months, 3 months or 6 months, or in the presence of silica gel at 40° C. for 1 month, 2 months, 3 months or 6 months. A sample stored at 40° C. and a relative humidity of 75±5% or 89±5% is referred to as a 40° C. and 75% relative humidity (also referred to as 40±2° C./75±5% RH) or 40° C. and 89% relative humidity (also referred to as 40±2° C./89% RH) stored product, and a sample stored in the presence of silica gel at 40° C. is referred to as a 40° C. stored product. The −40° C. hermetically sealed product was used as a standard product.
The amount of the analogous substance was measured by an area percentage method by the HPLC method under the following conditions.
HPLC Conditions 1 were used for the crystal and amorphous substance of the compound represented by Formula (I) obtained in Example 1, and HPLC conditions 2 were used for the crystal of the compound represented by Formula (II) obtained in Example 16.
• Detector: ultraviolet absorptiometer (measurement wavelength: 260 nm) • Column: YMC-Triart C18 ExRS, S-1.9 μm, 3.0×100 mm • Column temperature: constant temperature at near 40° C. • Mobile phase A: 0.1% formic acid aqueous solution • Mobile phase B: acetonitrile • Flow rate: about 0.6 mL/min • Injection amount: 3 μL • Sample cooler temperature: about 6° C. • Feed of mobile phase: The mixing ratio of mobile phase A and mobile phase B was changed as shown in Table 18 to control concentration gradient.
Column: Cortecs (2.7 μm 3.0×100 mm)
Column temperature: 40° C.
UV detection wavelength: 254 nm

A short description of series [2]: Moisture adsorption/desorption isotherm measurement (DVS). The format is physicochemical. The text has this:
The moisture adsorption/desorption isotherm measurement is a measurement method for measuring the adsorption and desorption behavior of moisture by measuring a weight change in a solid as a measurement target under each relative humidity condition.
As a basic measurement method, based on the dry weight at 0% RH (relative humidity 0%), the relative humidity is increased every 5% or 10%, and after the weight is stabilized at each relative humidity, the amount of adsorbed water can be determined from the weight increase from the reference value. Similarly, the desorption amount of water can be measured by decreasing the relative humidity every 5% or 10% from 100% RH or 95% RH.
By plotting the value of the weight change at each relative humidity, an adsorption/desorption isotherm can be obtained.
Sorption and desorption of adhesion water and crystal water are affected by particle size, crystallinity, crystal habit, and the like, so that the measurement results may slightly change.
The crystals and amorphous substances obtained in each Example were weighed in an aluminum pan, and allowed to stand at 25° C. and a relative humidity of 0%. The measurement was started after the compound was sufficiently dried and the weight was stabilized, and the weight when the relative humidity changed from 0% to 95% by 5% was recorded. Next, the weight when the relative humidity changed from 95% to 0% by 5% was recorded.
Device: DVS Advantage manufactured by Surface Measurement Systems

[3] abbreviates: 40° C. Relative humidity 75%, 2 months.
Where [4] appears, read: 40° C. hermetically sealed, 1 month.
The mark [5] stands for this setting: 40° C. hermetically sealed, 2 months.
The mark [6] stands for this setting: 40° C. hermetically sealed, 2 weeks.
Where [7] appears, read: 60° C. hermetically sealed, 1 month.
Where [8] appears, read: 60° C. hermetically sealed, 2 weeks.
The mark [9] stands for this setting: (Standard product) −40° C. hermetically sealed, 1 month.
[10] abbreviates: (Standard product) −40° C. hermetically sealed, 2 months.

Take `Cc1ccc(-n2nc3c(c2NC(=O)CS(C)(=O)=O)C(=O)NC2(CCOc4cc(F)cc(F)c42)C3)nc1` (stereo not shown) [listing 1 of 2 here]: the “Amount (%) of total analogous substance” value in series [1] (setting [3]) is on record as 0.27%; in series [1] (setting [4]), 0.22%; in series [1] (setting [5]), 0.23%; in series [1] (setting [6]), 0.22%; in series [1] (setting [7]), 0.24%; in series [1] (setting [8]), 0.23%. In addition, the “Amount (%) of total analogous substance” value in series [1] (setting [9]) and in series [1] (setting [10]) was 0.22% in each case.
Take `CS(=O)(=O)CC(=O)Nc1c2c(nn1CCCOC(F)(F)F)CC1(CCOc3cc(OCC(F)(F)F)ccc31)NC2=O` (stereo not shown) [listing 1 of 2 here]: the “Amount (%) of total analogous substance” value in series [1] (setting [3]) stood at 0.68%; in series [1] (setting [4]) it was 0.65%; in series [1] (setting [5]) it was 0.66%; in series [1] (setting [6]), 0.64%; in series [1] (setting [7]) it was 0.85%; in series [1] (setting [8]), 0.76%. The “Amount (%) of total analogous substance” value in series [1] (setting [9]) stood at 0.61%; in series [1] (setting [10]), 0.62%.
As for `CS(=O)(=O)CC(=O)Nc1c2c(nn1CCCOC(F)(F)F)CC1(CCOc3cc(OCC(F)(F)F)ccc31)NC2=O` (stereo not shown) [listing 2 of 2 here], the “Moisture adsorption amount (%)” value in series [2] (relative humidity 0.0%) is on record as 0.001%; in series [2] (relative humidity 5.0%), 0.242%; in series [2] (relative humidity 10.0%), 0.353%; in series [2] (relative humidity 15.0%) it was 0.457%; in series [2] (relative humidity 20.0%), 0.556%; in series [2] (relative humidity 25.0%), 0.651%. The “Moisture adsorption amount (%)” value in series [2] (relative humidity 30.0%) is 0.741%; in series [2] (relative humidity 35.0%), 0.831%; in series [2] (relative humidity 40.0%), 0.922%; in series [2] (relative humidity 45.0%), 1.003%; in series [2] (relative humidity 50.0%), 1.096%; in series [2] (relative humidity 55.0%), 1.186%. The “Moisture adsorption amount (%)” value in series [2] (relative humidity 60.0%) came to 1.285%; in series [2] (relative humidity 65.0%), 1.382%; in series [2] (relative humidity 70.0%) it was 1.498%; in series [2] (relative humidity 75.0%), 1.612%; in series [2] (relative humidity 80.0%), 1.744%; in series [2] (relative humidity 85.0%), 1.915%. The “Moisture adsorption amount (%)” value in series [2] (relative humidity 90.0%) was found to be 2.168%; in series [2] (relative humidity 95.0%) it was 2.597%. Also, the “Moisture desorption amount (%)” value in series [2] (relative humidity 0.0%) was −0.004%; in series [2] (relative humidity 5.0%), 0.453%; in series [2] (relative humidity 10.0%), 0.715%; in series [2] (relative humidity 15.0%), 0.916%; in series [2] (relative humidity 20.0%) it was 1.067%; in series [2] (relative humidity 25.0%) it was 1.194%. In addition, the “Moisture desorption amount (%)” value is listed as 1.311% in series [2] (relative humidity 30.0%); 1.412% in series [2] (relative humidity 35.0%); 1.510% in series [2] (relative humidity 40.0%); 1.601% in series [2] (relative humidity 45.0%); 1.688% in series [2] (relative humidity 50.0%); 1.776% in series [2] (relative humidity 55.0%). For the same molecule, the “Moisture desorption amount (%)” value was 1.870% in series [2] (relative humidity 60.0%); 1.964% in series [2] (relative humidity 65.0%); 2.062% in series [2] (relative humidity 70.0%); 2.166% in series [2] (relative humidity 75.0%); 2.278% in series [2] (relative humidity 80.0%); 2.398% in series [2] (relative humidity 85.0%). The “Moisture desorption amount (%)” value in series [2] (relative humidity 90.0%) is 2.522%; in series [2] (relative humidity 95.0%) it was 2.597%.
Regarding `Cc1ccc(-n2nc3c(c2NC(=O)CS(C)(=O)=O)C(=O)NC2(CCOc4cc(F)cc(F)c42)C3)nc1` (stereo not shown) [listing 2 of 2 here], the “Moisture adsorption amount (%)” value was found to be 0.002% in series [2] (relative humidity 0.0%); 0.676% in series [2] (relative humidity 5.0%); 1.020% in series [2] (relative humidity 10.0%); 1.312% in series [2] (relative humidity 15.0%); 1.574% in series [2] (relative humidity 20.0%); 1.807% in series [2] (relative humidity 25.0%). Further, the “Moisture adsorption amount (%)” value was determined as 2.015% in series [2] (relative humidity 30.0%); 2.213% in series [2] (relative humidity 35.0%); 2.414% in series [2] (relative humidity 40.0%); 2.589% in series [2] (relative humidity 45.0%); 2.780% in series [2] (relative humidity 50.0%); 2.976% in series [2] (relative humidity 55.0%). Further, the “Moisture adsorption amount (%)” value in series [2] (relative humidity 60.0%) came to 3.185%; in series [2] (relative humidity 65.0%), 3.384%; in series [2] (relative humidity 70.0%), 3.623%; in series [2] (relative humidity 75.0%), 3.914%; in series [2] (relative humidity 80.0%) it was 4.320%; in series [2] (relative humidity 85.0%) it was 4.850%. In addition, the entries for the “Moisture adsorption amount (%)” value in series [2] (relative humidity 90.0%) and in series [2] (relative humidity 95.0%) were 5.604% and 6.974%, respectively. For the same molecule, the “Moisture desorption amount (%)” value in series [2] (relative humidity 0.0%) was −0.433%; in series [2] (relative humidity 5.0%), 0.606%; in series [2] (relative humidity 10.0%) it was 1.196%; in series [2] (relative humidity 15.0%) it was 1.674%; in series [2] (relative humidity 20.0%), 2.131%; in series [2] (relative humidity 25.0%), 2.495%. Also, the “Moisture desorption amount (%)” value in series [2] (relative humidity 30.0%) was determined as 2.831%; in series [2] (relative humidity 35.0%), 3.157%; in series [2] (relative humidity 40.0%) it was 3.423%; in series [2] (relative humidity 45.0%) it was 3.699%; in series [2] (relative humidity 50.0%), 3.913%; in series [2] (relative humidity 55.0%), 4.135%. For the same molecule, the “Moisture desorption amount (%)” value worked out at 4.411% in series [2] (relative humidity 60.0%); 4.683% in series [2] (relative humidity 65.0%); 5.151% in series [2] (relative humidity 70.0%); 5.420% in series [2] (relative humidity 75.0%); 5.865% in series [2] (relative humidity 80.0%); 6.219% in series [2] (relative humidity 85.0%). The “Moisture desorption amount (%)” value in series [2] (relative humidity 90.0%) was determined as 6.599%; in series [2] (relative humidity 95.0%) it was 6.974%.
With `CS(=O)(=O)CC(=O)Nc1c2c(nn1CCCOC(F)(F)F)C[C@@]1(CCOc3cc(OCC(F)(F)F)ccc31)NC2=O` [amorphous substance of the compound represented by Formula (], the “difference in water content between 0% RH and 95% RH” value in series [2] (DVS, 25° C.) is given as “about 2.6%”.
